Experimental data as given in patent publication US20250179103A1, “6-OXODECAHYDROPYRROLO[1,2-A][1,5]DIAZOCINE AND 6-OXODECAHYDRO-4H-PYRROLO[2,1-D][1,5]THIAZOCINE DERIVATIVES AS STAT3 AND STAT6 MODULATORS FOR THE TREATMENT OF CANCER AND INFLAMMATORY CONDITIONS” (Recludix Pharma, Inc., priority 2022, published 2025).

Legend:
[1] = molecular target: T1, Recombinant STAT3 protein (STAT3(G127-I722)) (Homo sapiens, UniProt P40763); experiment: STAT3 Fluorescence Polarization (FP) Assay; format: binding; conditions: STAT3(G127-I722) 25 nM, probe 5-FAM-GpYLPQTV-NH2 2 nM, 45-minute incubation
T1 construct: Recombinant STAT3 protein (STAT3(G127-I722))
T1 sequence (P40763 127-722): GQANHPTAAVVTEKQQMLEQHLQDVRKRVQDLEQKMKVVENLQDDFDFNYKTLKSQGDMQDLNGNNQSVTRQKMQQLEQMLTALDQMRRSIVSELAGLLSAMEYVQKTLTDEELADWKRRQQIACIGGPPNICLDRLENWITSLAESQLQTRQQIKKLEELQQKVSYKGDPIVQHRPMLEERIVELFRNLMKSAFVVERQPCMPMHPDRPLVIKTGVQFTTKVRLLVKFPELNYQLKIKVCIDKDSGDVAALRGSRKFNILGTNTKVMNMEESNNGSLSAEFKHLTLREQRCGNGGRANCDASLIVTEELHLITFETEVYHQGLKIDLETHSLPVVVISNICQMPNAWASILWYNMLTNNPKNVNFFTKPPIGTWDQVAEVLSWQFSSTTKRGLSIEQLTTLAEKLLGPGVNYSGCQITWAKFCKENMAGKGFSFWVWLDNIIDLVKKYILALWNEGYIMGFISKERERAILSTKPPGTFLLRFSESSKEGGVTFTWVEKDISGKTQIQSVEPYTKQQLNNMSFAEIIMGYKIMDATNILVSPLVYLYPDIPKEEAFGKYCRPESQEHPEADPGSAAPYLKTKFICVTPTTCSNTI
Summary of the method: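 STAT3(G127-I722), 25 nM, was mixed with 2 nM 5-FAM-GpYLPQTV-NH2 probe in HEPES pH 7.4 buffer with 1% DMSO and serially diluted compound. FP (mP) was read after 45 min at room temperature. IC50 came from nonlinear regression.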

[2] = molecular target: T2, Recombinant STAT6 protein (STAT6(W123-T658)) (Homo sapiens, UniProt P42226); experiment: STAT6 Fluorescence Polarization (FP) Assay; format: binding; conditions: STAT6(W123-T658) 250 nM, probe 5-FAM-ApYKPFQDLI-NH2 2 nM, 45-minute incubation
T2 construct: Recombinant STAT6 protein (STAT6(W123-T658))
T2 sequence (P42226 123-658): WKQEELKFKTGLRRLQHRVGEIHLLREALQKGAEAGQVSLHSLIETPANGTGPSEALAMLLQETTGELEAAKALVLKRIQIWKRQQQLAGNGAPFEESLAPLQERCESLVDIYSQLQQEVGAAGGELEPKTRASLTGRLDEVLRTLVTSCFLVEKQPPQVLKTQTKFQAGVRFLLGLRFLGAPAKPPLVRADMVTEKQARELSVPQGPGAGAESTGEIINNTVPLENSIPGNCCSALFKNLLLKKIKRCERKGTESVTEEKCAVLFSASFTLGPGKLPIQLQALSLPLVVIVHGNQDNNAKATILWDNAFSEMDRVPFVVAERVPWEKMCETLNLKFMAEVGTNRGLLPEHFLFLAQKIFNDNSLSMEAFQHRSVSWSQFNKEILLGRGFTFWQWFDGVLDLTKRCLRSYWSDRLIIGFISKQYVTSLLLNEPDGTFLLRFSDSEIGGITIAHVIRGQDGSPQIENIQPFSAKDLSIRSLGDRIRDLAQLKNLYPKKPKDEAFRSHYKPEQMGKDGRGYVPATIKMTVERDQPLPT
Summary of the method: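 Displacement of a fluorescent phosphotyrosine peptide (5-FAM-ApYKPFQDLI-NH2, 2 nM) from STAT6(W123-T658) (250 nM), 1% DMSO, pH 7.4 HEPES buffer. After 45 min at room temperature, polarization (mP) was plotted versus log compound concentration and fitted by nonlinear regression to give IC50.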

| Compound | IC50 [1] | IC50 [2] |
| --- | --- | --- |
| CC(=O)N1CC[C@H]2CC[C@@H](C(=O)Nc3ccc(-c4ccccc4)cc3CC#N)N2C(=O)[C@@H](NC(=O)c2cc3cc(C(F)(F)P(=O)(O)O)ccc3s2)C1 [Compound 176, ((2-(((5S,8S,10aR)-3-acetyl-8-((3-(cyanomethyl)-[1,1′-biphenyl]-4-yl)carbamoyl)-6-oxodecahydropyrrolo[1,2-a][1,5]diazocin-5-yl)carbamoyl)benzo[b]thiophen-5-yl)difluoromethyl)phosphonic acid] | 100 to 1000 nM | 300 to 3000 nM |
| CC(=O)N1CC[C@H]2CC[C@@H](C(=O)Nc3ccc(-c4ccccc4)cc3CC(N)=O)N2C(=O)[C@@H](NC(=O)c2cc3cc(C(F)(F)P(=O)(O)O)ccc3s2)C1 [Compound 177, ((2-(((5S,8S,10aR)-3-acetyl-8-((3-(2-amino-2-oxoethyl)-[1,1′-biphenyl]-4-yl)carbamoyl)-6-oxodecahydropyrrolo[1,2-a][1,5]diazocin-5-yl)carbamoyl)benzo[b]thiophen-5-yl)difluoromethyl)phosphonic acid] | ≤ 100 nM | 300 to 3000 nM |
| CC(=O)N1CC[C@H]2CC[C@@H](C(=O)Nc3ccc(-c4ccccc4)cc3[N+](=O)[O-])N2C(=O)[C@@H](NC(=O)c2cc3cc(C(F)(F)P(=O)(O)O)ccc3s2)C1 [Compound 178] | 100 to 1000 nM | 300 to 3000 nM |
| CC(=O)N1CC[C@H]2CC[C@@H](C(=O)Nc3ccc(-c4ccccc4)[nH]c3=O)N2C(=O)[C@@H](NC(=O)c2cc3cc(C(F)(F)P(=O)(O)O)ccc3[nH]2)C1 [Compound 180, ((2-(((5S,8S,10aR)-3-acetyl-6-oxo-8-((2-oxo-6-phenyl-1,2-dihydropyridin-3-yl)carbamoyl)decahydropyrrolo[1,2-a][1,5]diazocin-5-yl)carbamoyl)-1H-indol-5-yl)difluoromethyl)phosphonic acid] | 100 to 1000 nM | 300 to 3000 nM |
| CC(=O)N1CC[C@H]2CC[C@@H](C(=O)N[C@H]3CN(C(C)=O)C[C@@H]3O)N2C(=O)[C@@H](NC(=O)c2cc3cc(C(F)(F)P(=O)(O)O)ccc3s2)C1 [Compound 182, ((2-(((5S,8S,10aR)-3-acetyl-8-(((3S,4S)-1-acetyl-4-hydroxypyrrolidin-3-yl)carbamoyl)-6-oxodecahydropyrrolo[1,2-a][1,5]diazocin-5-yl)carbamoyl)benzo[b]thiophen-5-yl)difluoromethyl)phosphonic acid] | 100 to 1000 nM | 300 to 3000 nM |
| CC(=O)N1CC[C@H]2CC[C@@H](C(=O)N(C)[C@H]3CN(C(C)=O)C[C@@H]3O)N2C(=O)[C@@H](NC(=O)c2cc3cc(C(F)(F)P(=O)(O)O)ccc3s2)C1 [Compound 183, ((2-(((5S,8S,10aR)-3-acetyl-8-(((3S,4S)-1-acetyl-4-hydroxypyrolidin-3-yl)(methyl)carbamoyl)-6-oxodecaohydrpyrrolo[1,2-a][1,5]diazocin-5-yl)carbamoyl)benzo[b]thiophen-5-yl)difluoromethyl)phosphonic acid] | 1000 to 10000 nM | 300 to 3000 nM |
| CO[C@H]1CN(C(C)=O)C[C@@H]1NC(=O)[C@@H]1CC[C@@H]2CCN(C(C)=O)C[C@H](NC(=O)c3cc4cc(C(F)(F)P(=O)(O)O)ccc4s3)C(=O)N21 [Compound 184, ((2-(((5S,8S,10aR)-3-acetyl-8-(((3S,4S)-1-acetyl-4-methoxypyrrolidin-3-yl)carbamoyl)-6-oxodecahydropyrrolo[1,2-a][1,5]diazocin-5-yl)carbamoyl)benzo[b]thiophen-5-yl)difluoromethyl)phosphonic acid] | 100 to 1000 nM | 300 to 3000 nM |
| CC(=O)N1CC[C@H]2CC[C@@H](C(=O)N(C)c3ccc(C(C)(C)C)cc3)N2C(=O)[C@@H](NC(=O)c2cc3cc(C(F)(F)P(=O)(O)O)ccc3s2)C1 [Compound 185, ((2-(((5S,8S,10aR)-3-acetyl-8-((4-(tert-butyl)phenyl)(methyl)carbamoyl)-6-oxodecahydropyrrolo[1,2-a][1,5]diazocin-5-yl)carbamoyl)benzo[b]thiophen-5-yl)difluoromethyl)phosphonic acid] | 1000 to 10000 nM | 300 to 3000 nM |
| CC(=O)N1CC[C@H]2CC[C@@H](C(=O)N3CCC[C@H]3Cc3ccccc3)N2C(=O)[C@@H](NC(=O)c2cc3cc(C(F)(F)P(=O)(O)O)ccc3s2)C1 [Compound 186, ((2-(((5S,8S,10aR)-3-acetyl-8-((S)-2-benzylpyrrolidine-1-carbonyl)-6-oxodecahydropyrrolo[1,2-a][1,5]diazocin-5-yl)carbamoyl)benzo[b]thiophen-5-yl)difluoromethyl)phosphonic acid] | 1000 to 10000 nM | ≤ 300 nM |
| CC(=O)N1CC[C@H]2CC[C@@H](C(=O)N(C)c3ccc(N4CCOCC4)cc3)N2C(=O)[C@@H](NC(=O)c2cc3cc(C(F)(F)P(=O)(O)O)ccc3s2)C1 [Compound 190, ((2-(((5S,8S,10aR)-3-acetyl-8-(methyl(4-morpholinophenyl)carbamoyl)-6-oxodecahydropyrrolo[1,2-a][1,5]diazocin-5-yl)carbamoyl)benzo[b]thiophen-5-yl)difluoromethyl)phosphonic acid] | 1000 to 10000 nM | 300 to 3000 nM |

Results, then the compound that gave them:

| IC50 [1] | IC50 [2] | Compound |
| --- | --- | --- |
| 100 to 1000 nM | ≤ 300 nM | CC(=O)N1CC[C@H]2CC[C@@H](C(=O)Nc3ccc4nnccc4c3)N2C(=O)[C@@H](NC(=O)c2cc3cc(C(F)(F)P(=O)(O)O)ccc3s2)C1 [Compound 174, ((2-(((5S,8S,10aR)-3-acetyl-8-(cinnolin-6-ylcarbamoyl)-6-oxodecahydropyrrolo[1,2-a][1,5]diazocin-5-yl)carbamoyl)benzo[b]thiophen-5-yl)difluoromethyl)phosphonic acid] |
| 100 to 1000 nM | 300 to 3000 nM | CC(=O)N1CC[C@H]2CC[C@@H](C(=O)Nc3ccc4[nH]ncc4c3)N2C(=O)[C@@H](NC(=O)c2cc3cc(C(F)(F)P(=O)(O)O)ccc3s2)C1 [Compound 175, ((2-(((5S,8S,10aR)-8-((1H-indazol-5-yl)carbamoyl)-3-acetyl-6-oxodecahydropyrrolo[1,2-a][1,5]diazocin-5-yl)carbamoyl)benzo[b]thiophen-5-yl)difluoromethyl)phosphonic acid] |
| 100 to 1000 nM | 300 to 3000 nM | CC(=O)N1CC[C@H]2CC[C@@H](C(=O)Nc3ccc(-c4ccccc4)c([N+](=O)[O-])c3)N2C(=O)[C@@H](NC(=O)c2cc3cc(C(F)(F)P(=O)(O)O)ccc3s2)C1 [Compound 179, ((2-(((5S,8S,10aR)-3-acetyl-8-((2-nitro-[1,1′-biphenyl]-4-yl)carbamoyl)-6-oxodecahydropyrrolo[1,2-a][1,5]diazocin-5-yl)carbamoyl)benzo[b]thiophen-5-yl)difluoromethyl)phosphonic acid] |
| 1000 to 10000 nM | 300 to 3000 nM | CC(=O)N1CC[C@H]2CC[C@@H](C(=O)Nc3ccccc3)N2C(=O)[C@@H](NC(=O)c2cc3cc(C(F)(F)P(=O)(O)O)ccc3s2)C1 [Compound 181, ((2-(((5S,8S,10aR)-3-acetyl-6-oxo-8-(phenylcarbamoyl)decahydropyrrolo[1,2-a][1,5]diazocin-5-yl)carbamoyl)benzo[b]thiophen-5-yl)difluoromethyl)phosphonic acid] |
| 1000 to 10000 nM | 300 to 3000 nM | CC(=O)N1CC[C@H]2CC[C@@H](C(=O)N(C)c3ccc(Cl)cc3)N2C(=O)[C@@H](NC(=O)c2cc3cc(C(F)(F)P(=O)(O)O)ccc3s2)C1 [Compound 187, ((2-(((5S,8S,10aR)-3-acetyl-8-((4-chlorophenyl)(methyl)carbamoyl)-6-oxodecahydropyrrolo[1,2-a][1,5]diazocin-5-yl)carbamoyl)benzo[b]thiophen-5-yl)difluoromethyl)phosphonic acid] |
| 1000 to 10000 nM | 300 to 3000 nM | CC(=O)N1CC[C@H]2CC[C@@H](C(=O)N(C)c3ccc(Cl)c(Cl)c3)N2C(=O)[C@@H](NC(=O)c2cc3cc(C(F)(F)P(=O)(O)O)ccc3s2)C1 [Compound 188, ((2-(((5S,8S,10aR)-3-acetyl-8-((3,4-dichlorophenyl)(methyl)carbamoyl)-6-oxodecahydropyrrolo[1,2-a][1,5]diazocin-5-yl)carbamoyl)benzo[b]thiophen-5-yl)difluoromethyl)phosphonic acid] |
| 1000 to 10000 nM | 300 to 3000 nM | CC(=O)N1CC[C@H]2CC[C@@H](C(=O)Nc3ccc4ccnnc4c3)N2C(=O)[C@@H](NC(=O)c2cc3cc(C(F)(F)P(=O)(O)O)ccc3s2)C1 [Compound 189, ((2-(((5S,8S,10aR)-3-acetyl-8-(cinnolin-7-ylcarbamoyl)-6-oxodecahydropyrrolo[1,2-a][1,5]diazocin-5-yl)carbamoyl)benzo[b]thiophen-5-yl)difluoromethyl)phosphonic acid] |
